Measurements reported in patent publication US20230256059A1, “COMPOSITIONS FOR TREATING RESPIRATORY TRACT INFECTION AND USES THEREOF” (Lateral IP Pty Ltd, priority 2020, published 2023).
Like-named read-outs stand apart in the source and are kept apart here. Bridge positions count the residues as written; N and C are the ends. Peptide text beside a SMILES is read from it.

Experiments:
[1] = test system: IL-6, MCP-1/CCL2, IFNγ, IL-10, IL-12p70, TNFα, IFNα, IFNβ, IFN λ2/3; experiment: Quantification of cytokines in mouse BAL fluid and sera (CBA, ELISA); format: in vivo, C57BL/6 mice; conditions: day 4 post-infection
Procedure: (§1) For virus infection studies, groups of 8 male C57BL/6 mice were randomized. […] Bronchoalveolar lavage (BAL) fluid was immediately obtained following euthanisation by flushing the lungs three times with 1 mL of PBS. Lungs were then removed and frozen immediately in liquid nitrogen. Titres of infectious virus in lung homogenates were determined by standard plaque assay on MDCK cells.
To detect cytokines, BAL fluid was collected and stored at −80° C. Levels of IL-6, MCP-1/CCL2, IFNγ, IL-10, IL-12p70, and TNFα proteins were determined by cytokine bead array (CBA) using the mouse inflammation kit (Becton Dickinson). Levels of mouse IFNα were determined by sandwich ELISA using mouse monoclonal clone F18 (Thermo Scientific) and rabbit polyclonal antibodies (PBL) (Thomas et al., 2014). Levels of mouse IFNβ were determined by sandwich ELISA using mouse monoclonal clone 7F-D3 (Abcam) and rabbit polyclonal antibodies (PBL) (Thomas et al., 2014). Mouse IFN λ2/3 was quantified by ELISA (R&D Systems).

HKx31 (H3N2) IAV [2] = experiment: Titres of infectious virus in lung homogenates by standard plaque assay on MDCK cells; format: in vivo, C57BL/6 mice; conditions: day 4 post-infection; for reduction in levels of infectious virus in lung tissues: daily therapeutic 20 mg/kg intranasal from day 1
Procedure: as §1

HKx31 (H3N2) IAV [3] = experiment: Assessment of lung oedema and vascular leakage; set-up: species or system C57BL/6 mice; conditions: mouse, in vivo
BAL cells = format: in vivo, C57BL/6 mice; conditions: day 4 post-infection
[4] = cited from earlier work
HKx31 (H3N2) IAV [5] = test system: HKx31 (H3N2) IAV; set-up: species or system C57BL/6 mice; conditions: mouse, in vivo; for IAV-associated lethality: 5 mg/kg
HKx31 = HKx31 infection of human PBECs, infectious virus in cell supernatants; format: cell-based; conditions: 24 hours following HKx31 infection
[6] = 20 mg/kg intranasal every 48 h
[7] = test system: respiratory tract infection by a virus; experiment: Case studies: oral AOD9604 in subjects with flu-like symptoms; format: in vivo, human
From the text: The subject is a person who presented with flu-like symptoms. The subject reported to have been free of flu-like symptoms over the past 8 years.
The subject developed a very sore throat. On awakening the next day, the sore throat was more severe and their nose was running (rhinorrhea) and becoming worse throughout the day. Other symptoms that developed during the day included: • a persistent deep phlegmy cough; • high temperature; • body sweats; • chills; • muscle soreness; and • fatigue.
Later that evening, the subject developed a loss of appetite, and an exacerbation of chills, body sweats, rhinorrhoea and persistent coughing. At around 8 pm that evening, the subject was administered ˜1 mg AOD9604 (SEQ ID NO:2), orally.
The subject is a person who in the afternoon presented with the flu, with symptoms including a persistent deep phlegmy cough, high temperature, body sweats, chills, muscle soreness and fatigue. The subject was administered ˜1 mg AOD9604 (SEQ ID NO:2), orally. The subject recalls sleeping well that evening.

SARS-CoV-2 = SARS-CoV-2 infection of Vero cells, cytopathic effect inhibition assay; format: cell-based
[8] = daily therapeutic 20 mg/kg intranasal from day 1
[9] = prophylactic 20 mg/kg intranasal, every 48 h

H-CRSVEGSCGF-OH (cysteine pairing not given here; listed as Homo sapiens) [LAT9991F]
TNFα levels in BAL fluid [1, 8]: less profound reduction
concentration of IFN λ2/3 in BAL fluid [1, 8]: not significantly different
concentration of IFNα in BAL fluid [1, 8]: not significantly different
concentration of IFNβ in BAL fluid [1, 8]: not significantly different
concentration of IL-10 in BAL fluid [1, 8]: not significantly different
concentration of IL-12p70 in BAL fluid [1, 8]: not significantly different
reduction of IFNγ in BAL fluid [1, 8]: 2.3 fold
reduction of IL-6 in the serum [1, 8]: approximately 1.6 fold
reduction in levels of infectious virus in lung tissues (HKx31 (H3N2) IAV [2]): 2.4 fold
lung wet-to-dry ratios (HKx31 (H3N2) IAV [3]): no significant differences
inflammatory Ly6C+ macrophages in the airways (BAL cells; [8]): significantly fewer
neutrophils in BAL (BAL cells; [8]): significantly fewer
numbers of macrophages in BAL (BAL cells; [8]): reduced numbers of macrophages
total BAL cellularity (BAL cells; [8]): significantly reduced
total numbers of dendritic cells (BAL cells; [8]): comparable to PBS-treated infected controls
stability as metabolite in human serum [4]: known stable metabolite of LAT8881 in human serum
IAV-associated lethality (HKx31 (H3N2) IAV [5]): delayed IAV-associated lethality

CC[C@H](C)[C@H](NC(=O)[C@H](CCCNC(=N)N)NC(=O)[C@H](CC(C)C)NC(=O)[C@@H](N)Cc1ccc(O)cc1)C(=O)N[C@H](C(=O)N[C@@H](CCC(N)=O)C(=O)N[C@H]1CSSC[C@@H](C(=O)NCC(=O)N[C@@H](Cc2ccccc2)C(=O)O)NC(=O)[C@H](CO)NC(=O)CNC(=O)[C@H](CCC(=O)O)NC(=O)[C@H](C(C)C)NC(=O)[C@H](CO)NC(=O)[C@H](CCCNC(=N)N)NC1=O)C(C)C [LAT8881, H-YLRIVQCRSVEGSCGF-OH] (H-YLRIVQCRSVEGSCGF-OH; disulfide 7-14)
IL-6 in the BAL fluid [1, 8]: significantly reduced
TNFα levels in BAL fluid [1, 8]: less profound reduction
concentration of IFN λ2/3 in BAL fluid [1, 8]: not significantly different
concentration of IFNα in BAL fluid [1, 8]: not significantly different
concentration of IFNβ in BAL fluid [1, 8]: not significantly different
concentration of IL-10 in BAL fluid [1, 8]: not significantly different
concentration of IL-12p70 in BAL fluid [1, 8]: not significantly different
levels of CCL2 in BAL fluid [1, 8]: limited levels of CCL2
reduction of IFNγ in BAL fluid [1, 8]: 2 fold
reduction of IL-6 in the serum [1, 8]: approximately 1.6 fold
concentration of CCL2 in BAL fluid [1, 9]: comparable with PBS-treated IAV infected controls
concentration of IL-6 in BAL fluid [1, 9]: comparable with PBS-treated IAV infected controls
concentration of IL-10 in BAL fluid [1, 9]: comparable with PBS-treated IAV infected controls
concentration of IL-12p70 in BAL fluid [1, 9]: comparable with PBS-treated IAV infected controls
concentration of TNFα in BAL fluid [1, 9]: comparable with PBS-treated IAV infected controls
levels of IFN λ2/3 [1, 9]: no significant differences
levels of IFNα [1, 9]: no significant differences
levels of IFNβ [1, 9]: no significant differences
reduction of IFNγ in BAL fluid [1, 9]: 2 fold
reduction of IL-6 in the serum [1, 9]: 1.5 fold
reduction in levels of infectious virus in lung tissues (HKx31 (H3N2) IAV [2]): 1.5 fold
reduction in infectious viral loads in the lung (HKx31 (H3N2) IAV [2]; prophylactic: 20 mg/kg intranasal 24 h prior to infection, then every 48 h): 1.6 fold
levels of infectious virus in cell supernatants (HKx31): no significant impact
weight loss or clinical signs of disease in uninfected mice [6]: did not result in weight loss or any clinical signs of disease
remaining symptoms on waking about 7 hours later ([7]; Case study 1: ~1 mg orally): the only remaining symptoms were a runny nose and a slight cough
symptoms of the flu by the morning ([7]; Case study 2: ~1 mg orally): all symptoms of the flu had disappeared except for a slight runny nose and a dry cough
time until reported symptom-free ([7]; Case study 2: ~1 mg orally, after the morning following dosing): around 24 hours
alleviation of symptoms of respiratory tract infection (conclusion of case studies) ([7]; ~1 mg orally, two case studies): capable of alleviating the symptoms of respiratory tract infection by a virus
BAL fluid protein concentrations (vascular leakage) (HKx31 (H3N2) IAV [3]): significantly reduced
lung wet-to-dry ratios (HKx31 (H3N2) IAV [3]): no significant differences
inflammatory Ly6C+ macrophages in the airways (BAL cells; [8]): significantly fewer
neutrophils in BAL (BAL cells; [8]): significantly fewer
total BAL cellularity (BAL cells; [8]): significantly reduced
total numbers of dendritic cells (BAL cells; [8]): comparable to PBS-treated infected controls
dendritic cells in the airways (BAL cells; [9]): no significant numerical difference
inflammatory Ly6C+ macrophages in the airways (BAL cells; [9]): no significant numerical difference
leukocyte cell death (Annexin V and PI staining of BAL cells) (BAL cells; [9]): no significant differences
macrophages in BAL (BAL cells; [9]): significantly fewer
neutrophils in BAL (BAL cells; [9]): significantly fewer
total BAL cellularity (BAL cells; [9]): significantly reduced
SARS-CoV-2 infection of Vero cells (cytopathic effect inhibition) (SARS-CoV-2): did not alter SARS-CoV-2 infection of Vero cells
clinical signs of disease (weight loss, limited mobility, laboured breathing) (HKx31 (H3N2) IAV [5]): reduced clinical signs of disease including weight loss
delay of IAV-associated lethality (HKx31 (H3N2) IAV [5]): 48 to 72 h
onset of clinical signs of severe disease (weight loss, limited mobility, laboured breathing) (HKx31 (H3N2) IAV [5]): delayed the onset of clinical signs of severe disease
survival of mice (from 0% in PBS controls) (HKx31 (H3N2) IAV [5]): approximately 30%
IAV-associated lethality (HKx31 (H3N2) IAV [5]): delayed IAV-associated lethality
